Results on twelve compounds are retold here after patent publication US11459332B2, “Substituted 2-azabicyclo[3.1.0]hexanes as TRK kinases inhibitors” (FOCHON BIOSCIENCES, LTD., priority 2018, dated 2022).

Holding throughout (type): cell-based
One assay relates to KM12 cells. Briefly: KM12 cells proliferation inhibition (MTS), mechanism-based TRK assay. The note with it: Homo sapiens, 72 h. The source says: (§1) MTS testing kit was purchased from Promega (Madison, Wis., USA). The RPMI-1640, Fetal bovine serum and Penicillin-Streptomycin were purchased from Gibco (San Francisco, Calif., USA). Dimethyl sulfoxide (DMSO) and Puromycin were purchased from Sigma (St. Louis, Mo., USA). Mouse interleukin-3 (IL-3) was purchased from Cell signaling Technology (Boston, Mass., USA).
To investigate whether a compound is able to inhibit the activity of TRK in cells, a mechanism-based assay using KM12 cells was developed. In this assay, inhibition of TRK was detected by the inhibition of KM12 cells proliferation. KM12 cells were cultured in culture flasks to 40-80% confluence in RPMI-1640 plus 10% fetal bovine serum. Cells were collected and plated onto 96-well plates at 1000 cells/well. Plates were incubated at 37° C., with 5% CO2 for 4 h. Compounds were added to the plates, the final compound concentrations were […], 123.5, 41.2, 13.7, 4.6 and 1.5 nM. Place plates at 37° C., with 5% CO2 for KM12 cells 72 h. 20 μl MTS/100 μl medium mixture solution were added to each well and incubate the plates for exactly 2 h. Stop the reaction by adding 25 μl 10% SDS per well. Measure absorbance at 490 nm and 650 nm (reference wavelength). IC50 was calculated using GraphPad Prism 5.0.

Another assay deals with T1, TPM3-TRKA-G595R (Homo sapiens, UniProt P04629, G595R).
T1 construct: TPM3 (fusion partner, N-terminal part); expressed in transfected cells; the other entry of the earlier key: TPM3 (P06753, Tropomyosin alpha-3 chain)
T1 sequence (P04629 510-796 G595R limits assumed): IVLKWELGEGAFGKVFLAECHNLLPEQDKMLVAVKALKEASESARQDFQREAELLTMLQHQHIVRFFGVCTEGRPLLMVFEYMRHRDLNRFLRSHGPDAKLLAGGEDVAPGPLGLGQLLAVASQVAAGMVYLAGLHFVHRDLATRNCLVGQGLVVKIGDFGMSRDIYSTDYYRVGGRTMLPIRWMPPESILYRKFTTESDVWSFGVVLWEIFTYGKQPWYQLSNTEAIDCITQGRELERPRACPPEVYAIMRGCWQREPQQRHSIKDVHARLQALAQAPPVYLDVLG
The experiment in a line: Engineered Ba/F3 cell proliferation inhibition (MTS), TPM3-TRKA-G595R. The note with it: Ba/F3-TPM3-TRKA-G595R cells, 72 h.
Source text: as §1
(§2) To investigate whether a compound is able to inhibit the activity of TRK fusion mutation in cells, a mechanism-based assay using engineered Ba/F3 cell lines stably overexpressing oncogenic rearrangement or gene mutation of TRK (TPM3-TRKA, TPM3-TRKA-G595R, AFAP1-TRKB, ETV6-TRKC and ETV6-TRKC-G623R) were developed. In this assay, inhibition of TRK fusion mutation was detected by the cell proliferation inhibition of engineered Ba/F3 cells. Engineered Ba/F3 cells were cultured in culture flasks to 40-80% confluence in RPMI-1640 supplemented with 10% fetal bovine serum, 2 ug/mL puromycin. Cells were collected and plated onto 96-well plates at desired cell density (Ba/F3-TPM3-TRKA: 3×10^4/mL, Ba/F3-TPM3-TRKA-G595R: 1×10^5/mL, Ba/F3-AFAP1-TRKB: 1×10^5/mL, Ba/F3-ETV6-TRKC: 3×10^4/mL, Ba/F3-ETV6-TRKC-G623R: 3×10^4/mL). Plates were incubated at 37° C., with 5% CO2 for 4 h. Compounds were then added to the plates with the final compound concentrations of 10000, 3333, 1111, 270, 123, 41.2, 13.7, 4.6 and 1.5 nM. Plates were incubated at 37° C., with 5% CO2 for 72 h. A mixture of 20 μl MTS/100 μl medium were added to each well and the plates were incubated at 37° C., with 5% CO2 for exactly 2 h. The reaction was stopped by adding 25 μl of 10% SDS per well. The absorbance was measured at 490 nm and 650 nm (reference wavelength). IC50 was calculated using GraphPad Prism 5.0 software.

The target in a further assay is T2, ETV6-TRKC (Homo sapiens, UniProt Q16288).
T2 construct: ETV6 (fusion partner, N-terminal part); expressed in transfected cells; the other entry of the earlier key: ETV6 (P41212, Transcription factor ETV6)
T2 sequence (Q16288 530-825 isoform Q16288-3 limits assumed): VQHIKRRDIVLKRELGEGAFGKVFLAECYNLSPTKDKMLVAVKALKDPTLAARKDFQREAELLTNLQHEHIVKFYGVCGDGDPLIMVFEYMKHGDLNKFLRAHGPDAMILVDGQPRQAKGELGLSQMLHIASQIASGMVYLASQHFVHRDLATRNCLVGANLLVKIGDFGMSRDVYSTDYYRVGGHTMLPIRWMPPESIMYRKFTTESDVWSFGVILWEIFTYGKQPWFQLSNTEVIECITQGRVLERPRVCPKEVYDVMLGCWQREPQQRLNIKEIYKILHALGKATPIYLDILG
Briefly: Engineered Ba/F3 cell proliferation inhibition (MTS), ETV6-TRKC. The following applies: Ba/F3-ETV6-TRKC cells, 72 h.
Source text: as §1, §2

For another assay, the target named is T3, TPM3-TRKA (Homo sapiens, UniProt P04629).
T3 construct: TPM3 (fusion partner, N-terminal part); expressed in transfected cells; the other entry of the earlier key: TPM3 (P06753, Tropomyosin alpha-3 chain)
T3 sequence (P04629 510-796 limits assumed): as the sequence (P04629 510-796 G595R limits assumed) above, with R86G counted along it
Briefly: Engineered Ba/F3 cell proliferation inhibition (MTS), TPM3-TRKA. The following applies: Ba/F3-TPM3-TRKA cells, 72 h.
Source text: as §1, §2

Another assay addresses T4, AFAP1-TRKB (Homo sapiens, UniProt Q16620).
T4 construct: AFAP1 (fusion partner, N-terminal part); expressed in transfected cells; the other entry of the earlier key: AFAP1 (Q8N556, Actin filament-associated protein 1)
The experiment in a line: Engineered Ba/F3 cell proliferation inhibition (MTS), AFAP1-TRKB. The following applies: Ba/F3-AFAP1-TRKB cells, 72 h.
Source text: as §1
as §2, with “Compounds were then added to the plates with the final compound concentrations of 10000, 3333, 1111, 270, 123, 41.2, 13.7, 4.6 and 1.5 nM. Plates were incubated at 37° C., with 5% CO2 for 72 h. A mixture of 20 μl MTS/100 μl medium were added to each well and the plates were incubated at 37° C., with 5% CO2 for exactly 2 h. The reaction was stopped by adding 25 μl of 10% SDS per well.” left out

Another assay addresses T5, ETV6-TRKC-G623R (Homo sapiens, UniProt Q16288, G623R, cells depend on it).
T5 construct: fused on or other part: P41212 (Transcription factor ETV6)
Briefly: Engineered Ba/F3 cell proliferation inhibition (MTS), ETV6-TRKC-G623R. The note with it: 72 h, read-out: ETV6-TRKC-G623R IC50.
Source text: as §1
as §2, with “Compounds were then added to the plates with the final compound concentrations of 10000, 3333, 1111, 270, 123, 41.2, 13.7, 4.6 and 1.5 nM. Plates were incubated at 37° C., with 5% CO2 for 72 h. A mixture of 20 μl MTS/100 μl medium were added to each well and the plates were incubated at 37° C., with 5% CO2 for exactly 2 h. The reaction was stopped by adding 25 μl of 10% SDS per well.” left out

T5 sequence (Q16288 whole entry G623R, the tested form may be a part): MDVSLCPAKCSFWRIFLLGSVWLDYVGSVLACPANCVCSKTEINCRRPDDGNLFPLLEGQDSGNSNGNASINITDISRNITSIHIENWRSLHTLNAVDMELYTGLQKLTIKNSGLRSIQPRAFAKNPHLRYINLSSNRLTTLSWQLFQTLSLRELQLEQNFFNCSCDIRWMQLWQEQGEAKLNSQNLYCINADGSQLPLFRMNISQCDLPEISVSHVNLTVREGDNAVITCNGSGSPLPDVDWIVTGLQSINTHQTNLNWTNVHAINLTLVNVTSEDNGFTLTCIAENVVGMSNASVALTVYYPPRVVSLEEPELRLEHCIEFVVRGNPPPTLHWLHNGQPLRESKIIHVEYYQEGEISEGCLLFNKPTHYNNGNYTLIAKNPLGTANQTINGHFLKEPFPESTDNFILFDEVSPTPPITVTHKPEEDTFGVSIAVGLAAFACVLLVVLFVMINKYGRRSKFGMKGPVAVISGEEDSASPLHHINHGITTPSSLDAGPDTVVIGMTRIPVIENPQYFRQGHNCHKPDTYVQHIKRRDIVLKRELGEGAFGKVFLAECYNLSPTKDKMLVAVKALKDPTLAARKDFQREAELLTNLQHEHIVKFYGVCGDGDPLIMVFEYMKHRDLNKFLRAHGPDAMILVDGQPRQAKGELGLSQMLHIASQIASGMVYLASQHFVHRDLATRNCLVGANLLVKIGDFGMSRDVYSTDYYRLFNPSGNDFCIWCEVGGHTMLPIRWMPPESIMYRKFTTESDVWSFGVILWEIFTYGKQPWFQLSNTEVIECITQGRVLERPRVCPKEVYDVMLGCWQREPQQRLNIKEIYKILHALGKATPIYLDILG
T4 sequence (Q16620 538-822 limits assumed): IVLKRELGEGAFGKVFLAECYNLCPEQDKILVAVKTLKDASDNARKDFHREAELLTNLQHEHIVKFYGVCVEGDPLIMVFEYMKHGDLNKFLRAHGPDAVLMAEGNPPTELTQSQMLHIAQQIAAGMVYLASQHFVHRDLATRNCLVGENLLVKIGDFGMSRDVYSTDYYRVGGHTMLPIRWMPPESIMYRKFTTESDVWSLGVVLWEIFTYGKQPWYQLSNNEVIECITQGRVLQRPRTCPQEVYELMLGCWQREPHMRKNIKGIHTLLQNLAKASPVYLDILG

For `Cc1cccc(C(=O)Nc2cnn3ccc(N4CC[C@H]5C[C@]54c4cc(F)ccc4F)nc23)n1` [Example 16, N-(5-((1R,5S)-1-(2,5-difluorophenyl)-2-azabicyclo [3.1.0]hexan-2-yl)pyrazolo[1,5-a]pyrimidin-3-yl)-6-methylpicolinamide], the IC50 with KM12 cells is 1 nM; against TPM3-TRKA-G595R it was 5 nM; on ETV6-TRKC, 1 nM; on TPM3-TRKA it was 1 nM.
With `O=C(Nc1cnn2ccc(N3CC[C@H]4C[C@]43c3cc(F)ccc3F)nc12)N1CC[C@H](O)C1` [Example 1, (S)—N-(5-((1R,5S)-1-(2,5-difluorophenyl)-2-azabicyclo[3.1.0]hexan-2-yl)pyrazolo[1,5-a]pyrimidin-3-yl)-3-hydroxypyrrolidine-1-carboxamide], the IC50 with KM12 cells came to 1 nM; against AFAP1-TRKB, 14 nM; against ETV6-TRKC, 1 nM; at TPM3-TRKA, 3 nM.
Turning to `Cc1cccnc1C(=O)Nc1cnn2ccc(N3CC[C@H]4C[C@]43c3cc(F)ccc3F)nc12` [Example 17, N-(5-((1R,5S)-1-(2,5-difluorophenyl)-2-azabicyclo [3.1.0]hexan-2-yl)pyrazolo[1,5-a]pyrimidin-3-yl)-3-methylpicolinamide], the IC50 in the assay on KM12 cells turned out to be 1 nM; against ETV6-TRKC it was 1 nM; at TPM3-TRKA, 2 nM.
`O=C(Nc1cnn2ccc(N3CC[C@H]4C[C@]43c3cc(F)ccc3Cl)nc12)N1CC[C@H](O)C1` [Example 2, (S)—N-(5-((1R,5S)-1-(2-chloro-5-fluorophenyl)-2-azabicyclo[3.1.0]hexan-2-yl)pyrazolo[1,5-a]pyrimidin-3-yl)-3-hydroxypyrrolidine-1-carboxamide]: the IC50 was found to be 42 nM in the assay with KM12 cells, 7 nM on ETV6-TRKC and 44 nM against TPM3-TRKA.
`O=C(Nc1cnn2ccc(N3CC[C@H]4C[C@]43c3cc(F)ccc3F)nc12)c1ccccn1` [Example 15, N-(5-((1R,5S)-1-(2,5-difluorophenyl)-2-azabicyclo [3.1.0]hexan-2-yl)pyrazolo[1,5-a]pyrimidin-3-yl) picolinamide]: the IC50 in the assay on KM12 cells was 1 nM; at TPM3-TRKA-G595R it was 18 nM; on ETV6-TRKC it was 1 nM; on TPM3-TRKA it was 1 nM.
Take `Cc1ccc(C(=O)Nc2cnn3ccc(N4CC[C@H]5C[C@]54c4cc(F)ccc4F)nc23)nc1` [Example 18, N-(5-((1R,5S)-1-(2,5-difluorophenyl)-2-azabicyclo [3.1,0]hexan-2-yl)pyrazolo[1,5-a]pyrimidin-3-yl)-5-methylpicolinamide]: the concentration for half-maximal inhibition (IC50) worked out at 2 nM in the assay with KM12 cells, 1 nM against ETV6-TRKC and 33 nM on TPM3-TRKA.
In the same order, the values of `O=C(Nc1cnn2ccc(N3CC[C@H]4C[C@]43c3cc(F)ccc3F)nc12)c1ccc(F)cn1` [Example 19, N-(5-((1R,5S)-1-(2,5-difluorophenyl)-2-azabicyclo [3.1.0]hexan-2-yl)pyrazolo[1,5-a]pyrimidin-3-yl)-5-fluoropicolinamide] are 1 nM, 1 nM and 2 nM.
Turning to `O=C(Nc1cnn2ccc(N3CC[C@H]4C[C@]43c3cc(F)ccc3F)nc12)c1ncc(F)cn1` [Example 21, N-(5-((1R,5S)-1-(2,5-difluorophenyl)-2-azabicyclo [3.1.0]hexan-2-yl)pyrazolo[1,5-a]pyrimidin-3-yl)-5-fluoropyrimidine-2-carboxamide], the IC50 in the assay on KM12 cells was 24 nM; at ETV6-TRKC it was 1 nM; against TPM3-TRKA, 10 nM.
Turning to `CC(C)c1nnc(-c2cnn3ccc(N4CC[C@H]5C[C@]54c4cc(F)ccc4F)nc23)o1` [Example 5, 2-(5-((1R,5S)-1-(2,5-difluorophenyl)-2-azabicyclo[3.1.0]hexan-2-yl)pyrazolo[1,5-a]pyrimidin-3-yl)-5-isopropyl-1,3,4-oxadiazole], the results for the IC50 with KM12 cells, at TPM3-TRKA-G595R and at TPM3-TRKA were 9 nM, 40 nM and 6 nM, respectively.
Consider `Cc1cnc(C(=O)Nc2cnn3ccc(N4CC[C@H]5C[C@]54c4cc(F)ccc4F)nc23)nc1` [Example 20, N-(5-((1R,5S)-1-(2,5-difluorophenyl)-2-azabicyclo [3.1.0]hexan-2-yl)pyrazolo[1,5-a]pyrimidin-3-yl)-5-methylpyrimidine-2-carboxamide], for which the IC50 in the assay on KM12 cells was 6 nM; on TPM3-TRKA-G595R it was 67 nM; at ETV6-TRKC, 1 nM; at TPM3-TRKA, 14 nM.
Take `CC(C)(C)c1nnc(-c2cnn3ccc(N4CC[C@H]5C[C@]54c4cc(F)ccc4F)nc23)s1` [Example 27, 2-(tert-butyl)-5-(5-((1R,5S)-1-(2,5-difluorophenyl)-2-azabicyclo[3.1.0]hexan-2-yl)pyrazolo[1,5-a]pyrimidin-3-yl)-1,3,4-thiadiazole]: the IC50 came to 11 nM with KM12 cells, 21 nM at TPM3-TRKA-G595R, 11 nM against ETV6-TRKC and 2 nM on TPM3-TRKA. For the same compound, the GI50 on ETV6-TRKC-G623R was 20 nM.
Turning to `CC(C)c1nnc(-c2cnn3ccc(N4CC[C@H]5C[C@]54c4cc(F)ccc4F)nc23)s1` [Example 26, 2-(5-((1R,5S)-1-(2,5-difluorophenyl)-2-azabicyclo [3.1.0]hexan-2-yl)pyrazolo[1,5-a]pyrimidin-3-yl)-5-isopropyl-1,3,4-thiadiazole], the IC50 was determined as 4 nM with KM12 cells, 15 nM against TPM3-TRKA-G595R, 1 nM on ETV6-TRKC and 2 nM on TPM3-TRKA. The GI50 at ETV6-TRKC-G623R was determined as 6 nM.
